Source: paper PMC9114115, “Property space mapping of Pseudomonas aeruginosa permeability to small molecules” (Scientific Reports, 2022)
Where “and” joins values, the source holds several entries; their conditions need not be identical. Equal values may be shown once. Where a name gives a salt, the structure may show the parent alone. Read-outs that look alike come from different tables or passages of the source.

Assays:
P. aeruginosa PΔ3-Pore = assay: MIC by two-fold dilution, barrierless PΔ3-Pore; assay type: cell-based, Pseudomonas aeruginosa; settings: for MIC: Pseudomonas aeruginosa, read-out: MICs, P∆3-Pore, MOPS-M9 medium; for MICs: P∆3-Pore, LB broth, Table S2
Description: (§1) In all experiments, P. aeruginosa PAO1-Pore (PAO1 attTn7::PLAC-fhuA) and PΔ3-Pore (ΔmexAB ΔmexCD ΔmexXY attTn7::PLAC-fhuA) strains were used[29]. Strains were routinely grown in Luria–Bertani (LB) or MOPS-M9 medium at 37 °C with aeration. MICs shown in Tables 1 and 2 were determined by a two-fold dilution method in LB broth and MOPS-M9 medium, respectively, following the previously described protocol.

[1] = test system: P. aeruginosa PAO1-Pore cells; assay: LC–MS quantification of intracellular accumulation, PAO1-Pore; settings: 10-80 µM; for Concentration slopes of accumulation, PAO1-Pore_1 min: 1 min incubation; for Concentration slopes of accumulation, PAO1-Pore_40 min: 40 min incubation;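 as to all read-outs here: slope of accumulation versus external concentration fitted as a line through zero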
Description: (§2) PAO1-Pore and PΔ3-Pore were grown at 37 °C overnight with shaking at 225 rpm in 50 mM MOPS-M9 (pH 7.2) Minimal Medium supplemented with 1% glycerol[42],[43].
(§3) The next day, cells were sub-cultured (1.5:100) in fresh MOPS-M9 medium and grown for 16 h. The cultures were then split into two flasks and one of them was induced with 0.1 mM IPTG. Cells incubated for additional 4 h until OD600 reached ~ 1.0 and harvested by centrifugation at 3,275xg for 20 min in RT, washed and concentrated 10X in the spent medium. Assays were performed in 96-well plates in a final volume of […]. Cells were incubated with 10, 20, 40, 80 µM of compounds and after 1- and 40-min incubation at RT, 100 µL cell aliquots were collected by vacuum filtration onto 1.0 µm Glass Fiber Type B filters. For no-cell controls, compounds were diluted to 10, 20, 40, 80 µM final concentration in the same medium, incubated for 1 min and 40 min and filtered onto the same plates. The cell loaded and cell-free filters were dried, removed from plates and placed into 100% methanol at -80 °C for at least 10 min. Filter-bound material was extracted by water bath sonication for 1 min. Cell and filter debris were separated by ultracentrifugation at 45,000 rpm (TLA55 rotor, Beckman) for 8 min at 16 °C and the pellet re-extracted with 80% methanol in water by sonication for 15 min followed by ultracentrifugation at the same conditions. Supernatants from two extractions were combined. For the compound quantification, 5 µL of solution was analyzed in triplicate.
(§4) Calibration curves for MS analyses of compounds were generated in the same experiment by mixing compound at increasing concentrations with the sonicated PAO1 cell extracts. […] Azithromycin was used as a positive control in all experiments.
(§5) Samples were processed in positive ion mode. An Eclipse plus C18 Rapid Resolution HD column (1.8 μm, 2.1 × 50 mm, Agilent, USA) was used for separation. The flow rate was 0.6 mL/min using the following gradient: 0 to 1 min (0- 20% ACN), 1 to 4 min (20- 80% ACN), 4 to 5.1 min (80–100% ACN), 5.1 to 6.30 (100% ACN). Solvents contained 0.1% formic acid to promote positive ion formation in the electrospray. […] Data were analyzed using Agilent Masshunter workstation quantitative analysis v. B.10 software.

P. aeruginosa PΔ3 cells = settings: 10-80 µM; for Concentration slopes of accumulation, PΔ3_1 min: 1 min incubation; for Concentration slopes of accumulation, PΔ3_40 min: 40 min incubation;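 as to all read-outs here: slope of accumulation versus external concentration fitted as a line through zero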
Description: as §2, §3, §4, §5

P. aeruginosa PAO1-Pore = assay: MIC by two-fold dilution, hyperporinated PAO1-Pore; assay type: cell-based, Pseudomonas aeruginosa; settings: for MICs: PAO1-Pore, LB broth, Table S2; for MIC: Pseudomonas aeruginosa, PAO1, read-out: MICs
Description: as §1

P. aeruginosa PAO1 = assay: MIC by two-fold dilution, wild type PAO1; assay type: cell-based, Pseudomonas aeruginosa; settings: Pseudomonas aeruginosa
Description: as §1

P. aeruginosa PAO1 cells = assay: LC–MS quantification of intracellular accumulation, PAO1; settings: 10-80 µM; for Concentration slopes of accumulation, PAO1_1 min: 1 min incubation; for Concentration slopes of accumulation, PAO1_40 min: 40 min incubation;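 as to all read-outs here: slope of accumulation versus external concentration fitted as a line through zero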
Description: as §2, §3, §4, §5

[2] = test system: P. aeruginosa PΔ3-Pore cells; assay: LC–MS quantification of intracellular accumulation, PΔ3-Pore; settings: 10-80 µM; for Concentration slopes of accumulation, PΔ3-Pore_1 min: 1 min incubation; for Concentration slopes of accumulation, PΔ3-Pore_40min: 40 min incubation;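 as to all read-outs here: slope of accumulation versus external concentration fitted as a line through zero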
Description: as §2, §3, §4, §5

P. aeruginosa PΔ3 = assay: microbe, parasite or virus in culture; assay type: cell-based, Pseudomonas aeruginosa; settings: Pseudomonas aeruginosa, read-out: MICs
Description: as §1

P. aeruginosa = settings: sheet "Good" permeators; all listed compounds are good permeators
Description: The measured levels of compound accumulation were analyzed using machine learning to determine which features of the compounds are most important for enabling their cellular accumulation and to determine their optimal values. […] To accentuate the permeability aspect, the accumulation slopes in efflux-deficient and hyperporinated strains were normalized to those in the parental PAO1 strain.
To help visualize the data, we performed a principal component (PC) decomposition of the data.

[3] = PAO1, MOPS-M9 medium, read-out: MICs

Structure (SMILES) | MIC (P. aeruginosa PΔ3-Pore) | MICs (P. aeruginosa PΔ3-Pore) | Concentration slopes of accumulation, PAO1-Pore_1 min [1] | Concentration slopes of accumulation, PAO1-Pore_40 min [1] | Concentration slopes of accumulation, PΔ3_1 min (P. aeruginosa PΔ3 cells) | Concentration slopes of accumulation, PΔ3_40 min (P. aeruginosa PΔ3 cells) | MICs (P. aeruginosa PAO1-Pore) | MIC (P. aeruginosa PAO1-Pore) | MIC (P. aeruginosa PAO1; [3]) | Concentration slopes of accumulation, PAO1_1 min (P. aeruginosa PAO1 cells) | Concentration slopes of accumulation, PAO1_40 min (P. aeruginosa PAO1 cells) | Concentration slopes of accumulation, PΔ3-Pore_1 min [2] | Concentration slopes of accumulation, PΔ3-Pore_40min [2] | MIC (P. aeruginosa PΔ3) | MIC (P. aeruginosa PAO1; PAO1, read-out: MICs) | Cluster of the identified "good" permeators (P. aeruginosa)
CCN1CCN(c2cc3c(cc2F)c(=O)c(C(=O)O)cn3C2CC2)CC1 [OU-0000620, ENROFLOXACIN] | 0.016 µM and 0.01 µg/mL | 0.0039 | 26.71 | 27.91 | 14.05 | 13.99 | 0.25 | 0.0625 µM and 0.02 µg/mL | 2 µM and 0.7 µg/mL | 18.49 | 16.52 | 26.71 | 29.82 | 0.5 µM and 0.18 µg/mL |  | 
CCn1cc(C(=O)O)c(=O)c2cc3c(cc21)OCO3 [OU-0000621, OXOLINIC ACID] | 0.078 µM and 0.02 µg/mL | 0.097 | 8.17 | 6.63 | 5.83 | 6.58 | 6.25 | 0.625 µM and 0.16 µg/mL | 20 µM and 5.2 µg/mL | 5.93 | 6.11 | 8.75 | 6.70 | 2.5 µM and 0.65 µg/mL |  | 
CN1CCN(c2cc3c(cc2F)c(=O)c(C(=O)O)cn3-c2ccc(F)cc2)CC1 [OU-0000624, DIFLOXACIN] | 0.0313 µM and 0.01 µg/mL | 0.097 | 8.04 | 11.39 | 4.42 | 5.02 | 0.39 | 0.0625 µM and 0.03 µg/mL | 2.5 µM and 1.1 µg/mL | 3.78 | 6.48 | 6.73 | 8.21 | 0.313 µM and 0.14 µg/mL |  | 
COc1c(N2C[C@@H]3CCCN[C@@H]3C2)c(F)cc2c(=O)c(C(=O)O)cn(C3CC3)c12 [OU-0000626, MOXIFLOXACIN HYDROCHLORIDE] | 0.0313 µM and 0.01 µg/mL | 0.024 | 3.02 | 7.25 | 1.39 | 2.61 | 0.39 | 0.03 µg/mL | 2.5 µM and 1.1 µg/mL | 1.19 | 2.06 | 2.26 | 4.78 | 0.27 µg/mL |  | 
CC1CCc2c(N3CCC(O)CC3)c(F)cc3c(=O)c(C(=O)O)cn1c23 (stereo not drawn) [OU-0000628, nadifloxacin] | 0.0156 µM and 0.01 µg/mL | 0.0015 | 11.41 | 12.74 | 9.00 | 9.79 | 0.39 | 0.0625 µM and 0.02 µg/mL | 5 µM and 1.8 µg/mL | 6.36 | 6.93 | 19.74 | 19.09 | 0.625 µM and 0.23 µg/mL |  | 
COc1cnc(NS(=O)(=O)c2ccc(N)cc2)nc1 [OU-0000694] | 6.25 µM and 1.75 µg/mL |  | 3.10 | 2.35 | 0.87 | 1.82 |  | 12.5 µM and 3.5 µg/mL |  | 2.18 | 1.74 | 3.61 | 3.14 | 25 µM and 7 µg/mL | > 200 µM and > 56.1 µg/mL | 
C[C@H]1COc2c(N3CCN(C)CC3)c(F)cc3c(=O)c(C(=O)O)cn1c23 [OU-0000806, Levofloxacin] | 0.008 µM and 0.003 µg/mL | 0.0039 | 6.98 | 7.94 | 2.43 | 5.63 | 0.25 | 0.031 µM and 0.011 µg/mL | 0.5 µM and 0.18 µg/mL | 3.66 | 5.59 | 3.52 | 5.77 | 0.25 µM and 0.2 µg/mL |  | 
COc1cccc2c1C(=O)c1c(O)c3c(c(O)c1C2=O)C[C@@](O)(C(=O)CO)C[C@@H]3O[C@H]1C[C@H](N)[C@H](O)[C@H](C)O1 [OU-0000835, Doxorubicin] | 3.2 µM and 1.7 µg/mL | 25 | 3.78 |  | 1.32 | 1.10 | 100 | 12.5 µM and 6.8 µg/mL | 200 µM and 109 µg/mL | 1.38 | 0.84 | 1.89 | 2.13 | 25 µM and 13.6 µg/mL |  | 
C=CCN1CC(CCCC)N(C(=O)OC(C)(C)C)C(Cc2ccccc2)C1=O (stereo not drawn) [OU-0032511] |  |  | 4.02 | 4.09 | 4.08 | 3.52 |  |  |  |  |  | 4.38 | 4.27 |  |  | 1
COc1cc(NS(=O)(=O)c2ccc(N)cc2)nc(OC)n1 [Sulfadimethoxine] | 1.6 µM and 0.5 µg/mL |  |  |  |  |  |  | 25 µM and 7.8 µg/mL |  |  |  |  |  | 200 µM and 62.1 µg/mL | > 200 µM and 62.1 µg/mL | 
Nc1ccc(S(=O)(=O)Nc2ccnn2-c2ccccc2)cc1 [Sulfaphenazole] | 3.2 µM and 1 µg/mL |  |  |  |  |  |  | 12.5 µM and 3.9 µg/mL | > 200 µM and > 62.9 µg/mL |  |  |  |  | 200 µM and 62.9 µg/mL |  | 
Nc1ccc(S(=O)(=O)Nc2nccs2)cc1 [Sulfathiazole] | 1.6 µM and 0.4 µg/mL |  |  |  |  |  |  | 3.2 µM and 0.8 µg/mL | 50 µM and 12.8 µg/mL |  |  |  |  | 6.25 µM and 1.6 µg/mL |  | 
Cc1noc(NS(=O)(=O)c2ccc(N)cc2)c1C [Sulfisoxazole] | > 200 µM |  |  |  |  |  |  | > 200 µM | > 200 µM and > 53.7 µg/mL |  |  |  |  | > 200 µM |  | 
